One data set has as its system P-gp (MDR1). Description: in vitro. Particulars: dog; for efflux ratio: MDCK-MDR1, MDCK-MDR1 efflux ratio (ER).
A short description of the next data set: in vitro. Particulars: dog.
The subject of another data set is MDR1 (P-gp). Description: in vitro. Particulars: dog.
Data set [1] is described as follows: Aqueous solubility in PBS (pH 7.4). Type of data set: physicochemical. Particulars: for solubility: PBS pH 7.4, read-out: aq. solubility; for solubility thermodynamic: PBS, pH 7.4, n = 2, read-out: Thermodynamic Solubility @ RT, mean. An excerpt:
(§1) Biosciences (Hyderabad, India) or WuXi AppTec (Shanghai, China).
(§2) Table S1: Representative assay protocol

Data set [2] is described as follows: Stability in mouse liver microsomes. Type of data set: in vitro ADME. Further details: MLM Stability Cli mean: unit not given here. Particulars: for half-life: mouse, liver microsomes, read-out: MLM Stability t1/2; for half-life / MLM Stability Cli mean: Table S4.
The nature of data set [3]: Metabolic stability in mouse hepatocytes.
The target in data set [4] is T1, human Notum (81–451 Cys330Ser) (Homo sapiens, UniProt Q6P988, C330S).
T1 construct: human Notum (81–451 Cys330Ser) as the enzyme; made in house
T1 sequence (Q6P988 81-451 C330S): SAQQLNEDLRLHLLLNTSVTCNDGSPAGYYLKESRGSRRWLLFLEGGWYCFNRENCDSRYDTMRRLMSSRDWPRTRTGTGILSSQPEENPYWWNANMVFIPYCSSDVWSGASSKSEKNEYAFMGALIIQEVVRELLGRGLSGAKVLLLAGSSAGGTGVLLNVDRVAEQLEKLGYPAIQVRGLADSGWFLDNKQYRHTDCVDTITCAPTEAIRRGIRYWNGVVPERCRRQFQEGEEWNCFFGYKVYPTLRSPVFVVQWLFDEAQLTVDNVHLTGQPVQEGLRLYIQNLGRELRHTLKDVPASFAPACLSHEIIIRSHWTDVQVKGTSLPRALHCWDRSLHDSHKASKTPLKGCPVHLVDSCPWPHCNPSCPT
Description: Notum OPTS biochemical assay. Particulars: for IC50: OPTS substrate, mean, read-out: Notum IC50. From the text: The optimization of 6 to deliver this profile was directed at three principle areas of these hit structures: (1) aryl ring 7 (Table 1); (2) the C4 substituent on triazole 8 (Table 2); and (3) further fine-tuning of the triazole 9 (Table 3). […] This assay was used to establish SAR and to identify preferred leads for additional studies.
Methods have been described in detail elsewhere.[23]−[26] Representative concentration–response curves are provided in the Supporting Information.

Another data set is described as follows: in vivo. The arrangement: species or system mouse. Particulars: mouse, p.o. 10 mg/kg. How it is done:
Mouse pharmacokinetic (PK) data was generated at Charles River Laboratories (Groningen, Netherlands) and GVK
Biosciences (Hyderabad, India). Rat PK was performed by WuXi AppTec (Shanghai, China).
Animal Testing Declaration: All in life phase studies were conducted in accordance with local Ethics Review
process. See, statements from each company.

Data set [5] in a line: Stability in human liver microsomes. Type of data set: in vitro ADME. The arrangement: HLM Stability Cli mean: unit not given here. Particulars: for half-life: human, liver microsomes, read-out: HLM Stability t1/2.
For data set [6] the following is noted: mouse PK, comparable study; cited from earlier work.
Data set [7] can be described thus: Distribution coefficient LogD7.4 (shake flask). Type of data set: physicochemical. Particulars: for logD at 1 h: 1-octanol/10 mM phosphate buffer, pH 7.4, octanol/buffer. How it is done:
Molecular properties (MW, clogP, and TPSA) were calculated with ChemDraw Professional v16.0.1.4(77). Distribution coefficients (LogD7.4) were measured using the shake flask method.
as §1
A. Distribution coefficient (LogD7.4):
as §2
Octanol/buffer partition coefficient. 500 µL of organic phase (1-octanol) was added to each well of a 2 mL deep well plate, followed by 500 µL of buffer and 15 µL of test substance was added. The plate was vortexed for 1 hr on a plate shaker at 1200 Method rpm. After incubation, the samples were allowed to equilibrate for 20 min and then centrifuged at 4000 rpm for 30 min for complete phase separation and analysed by […]
Buffer 10 mM phosphate buffer
Test compound concentration 0.15 mM
End Point Fractional distribution of test compound between octanol and buffer […]
B. Aqueous solubility at pH 7.4:
Thermodynamic Solubility @ RT

Data set [8] can be described thus: Brain tissue binding, rapid equilibrium dialysis. Type of data set: in vitro ADME, rat. How it is done: Method: rapid equilibrium dialysis.
Test System Mouse Brain Homogenate 10% w/v in PBS
Incubation Time 5 h (mouse) or 4 h (rat)
No. of Replicates Two (mouse) or three (rat)
Buffer Phosphate buffer saline, pH 7.4
% Unbound in brain % Bound in brain %
Compound Species / Matrix homogenate SD homogenate Recovery

[9] abbreviates: MDCK-MDR1, MDCK-MDR1 AB Papp, apical to basal.
[10] abbreviates: MDCK-MDR1, MDCK-MDR1 BA Papp, basal to apical.
Where [11] appears, read: MDCK-MDR1, MDR1-MDCKII A to B % Recovery.
Setting [12] is: MDCK-MDR1, MDR1-MDCKII B to A % Recovery.

Converted amounts (≈) assume the structure as drawn. “And” between values parts separate entries of the source, which are not always exact repeats. Equal entries are not always repeated.

As for `[2H]c1nnn(-c2ccc(Cl)c(C(F)(F)F)c2Cl)c1[2H]` [d2-8l, 1-(2,4-Dichloro-3-(trifluoromethyl)phenyl)-1H-1,2,3-triazole-4,5-d2], the Papp is 47.8 ×10⁻⁶ cm/s in the data set on P-gp (MDR1) (setting [9]), 35.4 ×10⁻⁶ cm/s in the data set on P-gp (MDR1) (setting [10]), 48 ×10⁻⁶ cm/s in “in vitro” (setting [9]) and 35 ×10⁻⁶ cm/s in the data set “in vitro” (setting [10]). Besides, the recovery in the data set on MDR1 (P-gp) (setting [11]) worked out at 102%; in the data set on MDR1 (P-gp) (setting [12]) it was 111%. In data set [1], the solubility was 44 µg/mL and 155 µM. Further, in data set [1], the thermodynamic solubility was 44 µg/mL (≈ 155 µM). Moreover, the “MLM Cli” value in data set [2] is 5.4 μL/min/mg protein and 5.4/ND μL/min/mg protein. In addition, the half-life in data set [2] was found to be 2.15 h.
Consider `OCc1cn(-c2ccc(Cl)c(C(F)(F)F)c2Cl)nn1` [7y, ((2,4-Dichloro-3-(trifluoromethyl)phenyl)-1H-1,2,3-triazol-4-yl)methanol], for which, in [3], the “mouse hepatocytes Cli” value was determined as 48 μL/min/10^6 cells. This molecule also came in with a half-life in data set [3] (mouse, hepatocytes) of 0.598 h. In data set [4], the “fold more active than hit 6b” value was determined as 50 fold, the “fold more active than unsubstituted phenyl 7a” value is given as 10,000 fold and the IC50 worked out at 9.5 ± 0.2 nM. Further, the Papp in the data set on P-gp (MDR1) (setting [9]) was determined as 45.9 ×10⁻⁶ cm/s. For the same molecule, the Papp in the data set on P-gp (MDR1) (setting [10]) came out at 27.8 ×10⁻⁶ cm/s. Moreover, the efflux ratio in the data set with P-gp (MDR1) stood at 0.61. Also, in “in vitro” (setting [9]), the Papp was determined as 46 ×10⁻⁶ cm/s. The molecule further had a Papp in the data set “in vitro” (setting [10]) of 28 ×10⁻⁶ cm/s. The molecule also returned a recovery in the data set on MDR1 (P-gp) (setting [11]) of 94.1%. The molecule also yielded a recovery in the data set on MDR1 (P-gp) (setting [12]) of 97.5%. In data set [1], the solubility is 210 µg/mL and 680 µM; the solubility (thermodynamic) is 213 µg/mL (≈ 683 µM). Also, the Kp in “in vivo” (male, C57/BL6, brain and plasma, po, AUC0–inf brain/plasma, total drug, read-out: brain-to-plasma ratio (Kp)) stood at 1.2. For the same molecule, in “in vivo” (plasma), the “AUC0–inf” value is given as 150 ng·h/mL and the Cmax was determined as 300 ng/mL. Besides, in data set [2], the “MLM Cli” value is reported as 6.7 μL/min/mg protein, the “MLM Stability Cli mean” value was found to be 6.65 and the half-life is 1.75 h. Moreover, the “HLM Cli” value in data set [5] stood at 1.7 μL/min/mg protein. In addition, in [5] (Table S4), the “HLM Stability Cli mean” value was determined as 1.65 and the half-life was determined as 9.21 h.
Turning to `Cc1c(C(F)(F)F)oc2ncnc(SCC(=O)N3CC(=O)N(C)C3)c12` [compound 3], the “brain-to-plasma ratio Kp” value in data set [6] is 0.29.
`COCCc1ccc(OCC(O)CNC(C)C)cc1` (centres unmarked) [Metoprolol, reference compound] yielded a logD at 1 h in data set [7] of -0.27.
Regarding `FC(F)(F)c1c(Cl)cnc(-n2ccnn2)c1Cl` [9c, 3,5-Dichloro-2-(1H-1,2,3-triazol-1-yl)-4-(trifluoromethyl)pyridine], the half-inhibitory concentration (IC50) in data set [4] is 7.5 ± 1.6 nM. In addition, the Papp in the data set on P-gp (MDR1) (setting [9]) was determined as 1.74 ×10⁻⁶ cm/s; with P-gp (MDR1) (setting [10]), 4.88 ×10⁻⁶ cm/s; in the data set “in vitro” (setting [9]), 2 ×10⁻⁶ cm/s; in the data set “in vitro” (setting [10]), 5 ×10⁻⁶ cm/s. In addition, the efflux ratio in the data set with P-gp (MDR1) was 2.81. For the same molecule, the recovery in the data set with MDR1 (P-gp) (setting [11]) was found to be 5.93%; in the data set with MDR1 (P-gp) (setting [12]), 65.2%. In addition, the solubility in data set [1] was 400 µg/mL and 1400 µM. Moreover, the solubility (thermodynamic) in data set [1] stood at 399 µg/mL (≈ 1410 µM). For the same molecule, the “MLM Cli” value in data set [2] is given as 4.9/ND μL/min/mg protein. Besides, in data set [2], the “MLM Stability Cli mean” value was found to be 4.94. Besides, the half-life in data set [2] is 2 h.
In data set [8] (brain homogenate, pH 7.4, SD rat, 4 h), `CC(C)NCC(O)COc1cccc2ccccc12` (centres unmarked) [Propranolol, reference compound] displayed a fraction unbound at 4 h, 2 µM of 0.026. In [8] (pH 7.4, SD rat brain homogenate), this molecule had a recovery at 4 h, 2 µM of 78.2%. Further, the “Brain binding, % bound” value in data set [8] (rat brain homogenate) is recorded as 97.4%.
Consider `OCc1cn(-c2ccc(Cl)c(Cl)c2)nn1` [6b, ((3,4-Dichlorophenyl)-1H-1,2,3-triazol-4-yl)methanol], for which the Papp in the data set on P-gp (MDR1) (setting [9]) was found to be 56.6 ×10⁻⁶ cm/s; in the data set on P-gp (MDR1) (setting [10]), 58.3 ×10⁻⁶ cm/s; in the data set “in vitro” (setting [9]), 57 ×10⁻⁶ cm/s; in “in vitro” (setting [10]), 59 ×10⁻⁶ cm/s. In addition, the recovery with MDR1 (P-gp) (setting [11]) turned out to be 80.7%; in the data set with MDR1 (P-gp) (setting [12]), 87.2%. In addition, in [1], the solubility is 100 µg/mL (≈ 410 µM). In addition, in data set [1], the thermodynamic solubility worked out at 104 µg/mL (≈ 426 µM). Besides, the “MLM Cli” value in data set [2] was 88 μL/min/mg protein. Also, the figures for the half-life in data set [2] and in data set [5] (Table S4) were 0.263 h and 1.92 h, respectively. The “HLM Cli” value in data set [5] turned out to be 12 μL/min/mg protein. In addition, the pH-dependent lipophilicity (logD) at 1 h in [7] is 2.41. The LogD7.4 in [7] (octanol/buffer, pH 7.4) stood at 2.4.

The record behind these values is article PMC9150124, “Design of a Potent, Selective, and Brain-Penetrant Inhibitor of Wnt-Deactivating Enzyme Notum by Optimization of a Crystallographic Fragment Hit” (Journal of Medicinal Chemistry, 2022).
